Reference: patent US6235891A, “Glucocorticoid receptor agonist and decreased PP5” (South Alabama Medical Science Foundation, priority 1999, dated 2001)

System: glucocorticoid receptor (GR) binding to DNA
Experiment: Gel mobility shift assay of GR binding to GRE DNA, A549 nuclear extracts
Type: cell-based, human
Details: 300 nM ISIS 15534 compared with 1 μM dexamethasone
Protocol: Nuclear extracts and gel mobility shift assays were conducted as previously described (Li et al. 1991) with slight modifications (Zuo et al. 1998). Briefly, A549 cells were cultured in 60 mm dishes and treated with ISIS 15521 or ISIS 15534 antisense oligonucleotides (Zuo et al. 1998) three dishes per group. Six hours after treatment, the cells were collected, washed with ice-cold PBS, and incubated in buffer A (10 mM HEPES, pH 7.9, 10 mM KCl, 0.1 mM EDTA, 0.1 mM EGTA, 1 mM DTT, 0.5 mM PMSF) at 4° C. for 15 minutes. The cells were then lysed by adding 25 μl 10% NP-40 and vigorous vortexing for 10 seconds. Nuclei were precipitated by centrifugation, resuspended in ice-cold buffer B (20 mM HEPES, pH 7.9, 0.4 M NaCl, 1 mM EDTA, 1 mM EGTA, 1 mM DTT, 1 mM PMSF), incubated at 4° C. for 60 minutes with gentle shaking, and then subjected to centrifugation at 4° C. for 5 minutes. The supernatant was collected, aliquoted, and stored at -80° C. […]
Referring to FIG. 3A, the inhibition of PP5 expression enhances glucocorticoid receptor binding to DNA. […] The relative light units of the cell extract were calculated as an average of three independent experiments, performed in triplicate, and presented as relative luciferase activity with error bars indicating SD. […]

**Q.** For “ISIS 15534: chimeric PP5 antisense oligonucleotide, P=O wings, P=S deoxy gap; GGGCCCTATTGCTTGAGTGG, SEQ ID NO: 12 (sugars by position and backbone not given here; chimeric, phosphodiester wings, phosphorothioate deoxy gap)”, which GR/GRE gel shift is on record?
**A.** more pronounced shift
